Measurements as given in US7247306B2, “Bacteria strain and bacteriocin produced therefrom” (Universite Laval, priority 2004, dated 2007).
Marks after values point to notes of the source that are not given here.

Experiments:
Format in all cases: cell-based
[1] = test system: L. innocua HPB13; assay: Bacteriocin activity during growth of C. divergens M35 in MRS broth, critical-dilution micromethod; details: 30° C.
Procedure: Protein concentration was determined as known in the art. Two-fold serial dilutions of 125 μl of tested sample were transferred into wells with a flat bottom microtest™ polystyrene microplate (96-well microtest, Becton Dickinson Labware, Franklin Lakes, N.J., USA), previously filled with 125 μl tryptic soy broth supplemented with 0.6% yeast extract (wt/vol). Each well was inoculated with 50 μl of 1000-fold diluted overnight culture of L. innocua HPB13 (final concentration of approximately 10^6 cfu/ml) and incubated at 30° C. for 18 h. Optical densities (650 nm) were then measured using a Thermo-max molecular device spectrophotometer (OPTI-Resources Inc., Quebec, PQ, Canada). The bacteriocin activity, expressed in arbitrary units per milliliter (AU/ml), was defined as the highest bacteriocin dilution showing complete inhibition of the indicator strain (optical density equals to that in un-inoculated media).
A C. divergens M35 culture were diluted (1% vol/vol) in peptone water (0.1%), plated on MRS agar supplemented with 0.1% vol/vol Tween 80® and incubated aerobically at 30° C. for 24 h. Bacterial viable counts, bacteriocin activity and pH were determined at 2 h intervals. Bacteriocin activity was determined according to the critical-dilution micromethod described hereinabove, using 5 ml of culture supernatant, separated by centrifugation and heated at 100° C.

[2] = test system: L. ivanovii; assay: Agar diffusion method, spectrum of activity; design: key: +, inhibition;; −, no inhibition
Procedure: (§1) Bacteria stocks were maintained as 20% glycerol stock, at −80° C., for further use. Carnobacterium sp. and Lactococcus sp. strains were cultivated in MRS broth comprising 0.1% (vol/vol) Tween 80® in aerobic condition at 30° C., as currently known in the art. Listeria monocytogenes and Escherichia coli were grown in tryptic soy broth (TSB), supplemented with 0.6% (wt/vol) yeast extract in aerobic conditions, at 37° C., while Listeria innocua and L. ivanovii were re-cultivated in TSB with yeast extract and incubated aerobically at 30° C. Streptococcus thermophilus, Propionibacterium sp. and pediococci were activated in MRS broth at 37° C. under aerobic condition. All lactobacilli and bifidobacteria were grown in MRS broth supplemented with 0.05% (wt/vol) L-cysteine-hydrochloride and incubated anaerobically in Oxoid jars using an atmosphere generation system, at 37° C. In prior experiments, bacteria strains were sub-cultured at least three times (1%, vol/vol) in respective media at 24 h intervals.
(§2) The antibacterial activity of bacteriocin produced by C. divergens M35 was tested toward a variety of bacteria species, listed in Table 1, and belonging to genus Listeria, Lactobacillus, Streptococcus, Lactococcus, Propionibacterium and Escherichia, and was evaluated following the agar diffusion method, as is well known to those skilled in the art.

[3] = test system: Lactobacillus acidophilus; assay: Agar diffusion method, spectrum of activity; design: key: +, inhibition;; −, no inhibition; details: strain R 0052
Procedure: as §1, §2

[4] = test system: Pediococcus acidilactici; assay: Agar diffusion method, spectrum of activity; design: key: +, inhibition;; −, no inhibition
Procedure: as §1, §2

[5] = test system: Lactobacillus plantarum; assay: Agar diffusion method, spectrum of activity; design: key: +, inhibition;; −, no inhibition; details: strain R 1012
Procedure: as §1, §2

[6] = test system: Streptococcus thermophilus; assay: Agar diffusion method, spectrum of activity; design: key: +, inhibition;; −, no inhibition; details: strain R 0083
Procedure: as §1, §2

[7] = test system: Lactococcus lactis (subsp. lactis biovar. diacetylactis); assay: Agar diffusion method, spectrum of activity; design: key: +, inhibition;; −, no inhibition
Procedure: as §1, §2

[8] = test system: Bifidobacterium breve; assay: Agar diffusion method, spectrum of activity; design: key: +, inhibition;; −, no inhibition; details: strain ATCC 15700
Procedure: as §1, §2

[9] = test system: Propionibacterium freudenreichii; assay: Agar diffusion method, spectrum of activity; design: key: +, inhibition;; −, no inhibition; details: strain R 0501
Procedure: as §1, §2

[10] = test system: Lactobacillus salivarius; assay: Agar diffusion method, spectrum of activity; design: key: +, inhibition;; −, no inhibition; details: strain R 0078
Procedure: as §1, §2

[11] = test system: Lactobacillus casei; assay: Agar diffusion method, spectrum of activity; design: key: +, inhibition;; −, no inhibition; details: strain R R0256
Procedure: as §1, §2

[12] = test system: Pediococcus pentosaceus; assay: Agar diffusion method, spectrum of activity; design: key: +, inhibition;; −, no inhibition; details: strain R 1044
Procedure: as §1, §2

[13] = test system: Lactococcus lactis (subsp. lactis); assay: Agar diffusion method, spectrum of activity; design: key: +, inhibition;; −, no inhibition; details: strain R0058
Procedure: as §1, §2

[14] = test system: Lactobacillus delbrueckii subsp. lactis; assay: Agar diffusion method, spectrum of activity; design: key: +, inhibition;; −, no inhibition; details: strain R 0187
Procedure: as §1, §2

[15] = test system: Lactobacillus rhamnosus; assay: Agar diffusion method, spectrum of activity; design: key: +, inhibition;; −, no inhibition; details: strain R 0011
Procedure: as §1, §2

[16] = test system: Propionibacterium sp.; assay: Agar diffusion method, spectrum of activity; design: key: +, inhibition;; −, no inhibition; details: strain P5
Procedure: as §1, §2

[17] = test system: L. innocua HPB13; assay: Critical-dilution micromethod (microtiter plate assay) on purification stages; details: specific activity at stage ni divided by that of the culture supernatant
Procedure: The concentrated bacteriocin was further purified by Reverse-Phase Column Liquid Chromatography (RP-HPLC) using a Beckman Gold System (Beckman Coulter Canada Inc., Mississauga, ON, Canada). Briefly, 100 μl of the concentrated bacteriocin were injected into an analytic C18 reverse-phase column (Luna 5μ, 4.6×250 mm, Phenomenex, Calif., USA). Elution was performed at a flow rate of 1 ml/min using a linear gradient from 90% solvent A (0.1% (wt/vol) trifluoroacetic acid (TFA) prepared in 5% (vol/vol) acetonitrile in water) and 10% solvent B (0.1% TFA in 100% acetonitrile) to 42 and 58% of solvents A and B, respectively, for 46 min. Peptide fractions were detected by spectrophotometry by measuring the absorbance at 220 nm and were collected manually. The fractions were concentrated using a speed-vac concentrator, dissolved in acetate buffer ([…], pH 4.0) and assayed for both bacteriocin activity by the critical-dilution micromethod, and protein content.
Protein concentration was determined as known in the art. […] Optical densities (650 nm) were then measured using a Thermo-max molecular device spectrophotometer (OPTI-Resources Inc., Quebec, PQ, Canada). […]
The biological activity of divergicin M35 was determined during the purification procedure by both agar diffusion and critical-dilution methods using L. innocua HPB 13 as indicator strain.

[18] = test system: L. murayi; assay: Agar diffusion method, spectrum of activity; design: key to Sensitivity to divergicin M35: +, inhibition;; −, no inhibition; details: strain LSD 14
Procedure: as §1, §2

[19] = test system: Escherichia coli; assay: Agar diffusion method, spectrum of activity; design: key to Sensitivity to divergicin M35: +, inhibition;; −, no inhibition
Procedure: as §1, §2

[20] = test system: L. grayi; assay: Agar diffusion method, spectrum of activity; design: key to Sensitivity to divergicin M35: +, inhibition;; −, no inhibition; details: strain LSD 13
Procedure: as §1, §2

[21] = test system: Listeria monocytogenes; assay: Agar diffusion method, spectrum of activity; design: key to Sensitivity to divergicin M35: +, inhibition;; −, no inhibition
Procedure: as §1, §2

[22] = test system: Carnobacterium piscicola; assay: Agar diffusion method, spectrum of activity; design: key to Sensitivity to divergicin M35: +, inhibition;; −, no inhibition; details: strain ATCC 386
Procedure: as §1, §2

[23] = test system: L. seeligeri; assay: Agar diffusion method, spectrum of activity; design: key to Sensitivity to divergicin M35: +, inhibition;; −, no inhibition; details: strain LSD 11
Procedure: as §1, §2

[24] = test system: Carnobacterium divergens; assay: Agar diffusion method, spectrum of activity; design: key to Sensitivity to divergicin M35: +, inhibition;; −, no inhibition; details: strain ATCC 385
Procedure: as §1, §2

[25] = test system: L. welshimeri; assay: Agar diffusion method, spectrum of activity; design: key to Sensitivity to divergicin M35: +, inhibition;; −, no inhibition; details: strain LSD 12
Procedure: as §1, §2

[26] = test system: L. innocua; assay: Agar diffusion method, spectrum of activity; design: key to Sensitivity to divergicin M35: +, inhibition;; −, no inhibition; details: strain HPB13
Procedure: as §1, §2

## divergicin M35: class IIa bacteriocin of 43 amino acids, 4518 Da, produced by Carnobacterium divergens strain M35 (SEQ ID NO: 1) (TKYYGNGVYCNSKKCWVDWGTAQGCIDVVIGQLGGGIPGKGKC; listed as Carnobacterium divergens)
[1]; after 10 h of growth
  biological activity of divergicin M35 in culture: approximately 18000 AU/ml
[1]; after 14 h of growth
  biological activity of divergicin M35 in culture, maximum: 65000 AU/ml
[2]; strain ATCC19119
  Sensitivity to divergicin M35: −
[2]; strain HPB28
  Sensitivity to divergicin M35: +
[3]
  Sensitivity to divergicin M35: −
[4]; strain R 1001
  Sensitivity to divergicin M35: −
[4]; strain UL 5
  Sensitivity to divergicin M35: −
[5]
  Sensitivity to divergicin M35: −
[6]
  Sensitivity to divergicin M35: −
[7]; strain R 0100
  Sensitivity to divergicin M35: −
[7]; strain UL719
  Sensitivity to divergicin M35: −
[8]
  Sensitivity to divergicin M35: −
[9]
  Sensitivity to divergicin M35: −
[10]
  Sensitivity to divergicin M35: −
[11]
  Sensitivity to divergicin M35: −
[12]
  Sensitivity to divergicin M35: −
[13]
  Sensitivity to divergicin M35: −
[14]
  Sensitivity to divergicin M35: −
[15]
  Sensitivity to divergicin M35: −
[16]
  Sensitivity to divergicin M35: −
[17]
  Increase in specific Activity (fold): 9500 fold
[18]
  Diameter of inhibition zone (mm): 17.5 ± 1 mm
  Sensitivity to divergicin M35: +
[19]; Escherichia coli 22
  Sensitivity to divergicin M35: −
[19]; Escherichia coli 43
  Sensitivity to divergicin M35: −
[19]; Escherichia coli strains tested
  effect on Gram-negative strains (in words): not affected
[20]
  Diameter of inhibition zone (mm): 15.0 ± 1 mm
  Sensitivity to divergicin M35: +
[21]; in every case (sensitive Listeria strains)
  time the antibacterial activity (diameter of the inhibition zone) remained stable: ≥ 36 h
[21]; of the 24 tested strains of L. monocytogenes
  number of strains sensitive to divergicin M35: 22
[21]; strain ATCC 19111
  Sensitivity to divergicin M35: +
[21]; strain ATCC 19112
  Sensitivity to divergicin M35: +
[21]; strain ATCC 19114
  Sensitivity to divergicin M35: +
[21]; strain ATCC 19115
  Sensitivity to divergicin M35: +
[21]; strain ATCC 35152
  Sensitivity to divergicin M35: +
[21]; strain LSD 15
  Sensitivity to divergicin M35: −
  sensitivity to divergicin M35 (in words): resistant
[21]; strain LSD 332
  Diameter of inhibition zone (mm): 18.5 ± 1 mm
  Sensitivity to divergicin M35: +
[21]; strain LSD 336
  Diameter of inhibition zone (mm): 16.5 ± 0.5 mm
  Sensitivity to divergicin M35: +
[21]; strain LSD 338
  Diameter of inhibition zone (mm): 18.0 ± 0.5 mm
  Sensitivity to divergicin M35: +
[21]; strain LSD 339
  Diameter of inhibition zone (mm): 19.0 ± 0.5 mm
  Sensitivity to divergicin M35: +
[21]; strain LSD 340
  Diameter of inhibition zone (mm): 17.0 ± 0.5 mm
  Sensitivity to divergicin M35: +
[21]; strain LSD 341
  Diameter of inhibition zone (mm): 13.0 ± 0.5 mm
  Sensitivity to divergicin M35: +
[21]; strain LSD 346
  Diameter of inhibition zone (mm): 17.5 ± 1 mm
  Sensitivity to divergicin M35: +
[21]; strain LSD 348
  Diameter of inhibition zone (mm): 17.5 ± 1 mm
  Sensitivity to divergicin M35: +
[21]; strain LSD 523
  Diameter of inhibition zone (mm): 10 ± 1^b mm
  Sensitivity to divergicin M35: +
[21]; strain LSD 524
  Diameter of inhibition zone (mm): 22.0 ± 1^b mm
  Sensitivity to divergicin M35: +
[21]; strain LSD 525
  Sensitivity to divergicin M35: −
  sensitivity to divergicin M35 (in words): resistant
[21]; strain LSD 526
  Diameter of inhibition zone (mm): 21.0 ± 1 mm
  Sensitivity to divergicin M35: +
[21]; strain LSD 529
  Diameter of inhibition zone (mm): 14.5 ± 0.5 mm
  Sensitivity to divergicin M35: +
[21]; strain LSD 530
  Diameter of inhibition zone (mm): 19.0 ± 1 mm
  Sensitivity to divergicin M35: +
[21]; strain LSD 531
  Diameter of inhibition zone (mm): 18.5 ± 1 mm
  Sensitivity to divergicin M35: +
[21]; strain LSD 532
  Diameter of inhibition zone (mm): 20.0 ± 0.5^b mm
  Sensitivity to divergicin M35: +
[21]; strain LSD 535
  Diameter of inhibition zone (mm): 19.0 ± 0.5 mm
  Sensitivity to divergicin M35: +
[21]; strain LSD 538
  Diameter of inhibition zone (mm): 20.0 ± 0.5 mm
  Sensitivity to divergicin M35: +
[22]
  Diameter of inhibition zone (mm): 17.5 ± 1 mm
  Sensitivity to divergicin M35: +
[23]
  Diameter of inhibition zone (mm): 13.5 ± 1 mm
  Sensitivity to divergicin M35: +
[24]
  Diameter of inhibition zone (mm): 15.0 ± 1 mm
  Sensitivity to divergicin M35: +
[25]
  Diameter of inhibition zone (mm): 20 ± 0.5 mm
  Sensitivity to divergicin M35: +
[26]
  Diameter of inhibition zone (mm): 21 ± 0.5 mm
  Sensitivity to divergicin M35: +
